Like-named read-outs stand apart in the source and are kept apart here.
Experiments:
Assay type in all cases: in vivo
Myzus persicae = experiment: whole plant or invertebrate
From the text: (§1) If the actual kill rate is greater than that calculated, the kill rate of the combination is superadditive, which means that a synergistic effect is present. In this case, the kill rate actually observed must be greater than the value calculated from the above formula for the expected kill rate (E).
(§2) • 78 parts by weight of acetone • 1.5 parts by weight of dimethylformamide Emulsifier: 0.5 part by weight of alkylaryl polyglycol ether
(§3) To produce an appropriate active ingredient formulation, 1 part by weight of active ingredient is mixed with the stated amounts of solvent and emulsifier, and the concentrate is diluted with emulsifier-containing water to the desired concentration.
After the desired time, the kill in % is determined. 100% means that all aphids have been killed; 0% means that no aphids have been killed. The kill rates determined are entered into Colby's formula.

Tetranychus urticae = experiment: Tetranychus test (OP-resistant/spray treatment)
From the text: (§4) The expected action for a given combination of two active ingredients can be calculated according to S. R. Colby, Weeds 15 (1967), 20-22 as follows:
(§5) • X is the kill rate, expressed in % of the untreated control, in the case of use of active ingredient A in an application rate of m g/ha or in a concentration of m ppm, • Y is the kill rate, expressed in % of the untreated control, in the case of use of active ingredient B in an application rate of n g/ha or in a concentration of n ppm, and • E is the kill rate, expressed in % of the untreated control, in the case of use of active ingredients A and B in application rates of m and n g/ha or in a concentration of m and n ppm, then
as §1, §2, §3
Discs of bean leaves (Phaseolus vulgaris) infested by all stages of the two-spotted spider mite (Tetranychus urticae) are sprayed with an active ingredient formulation of the desired concentration.
After the desired period of time, the effect in % is determined. 100% means that all of the spider mites have been killed; 0% means that none of the spider mites have been killed.

Phaedon cochleariae = experiment: whole plant or invertebrate
From the text: as §4, §5, §1, §2, §3
Cabbage leaves (Brassica oleracea) are treated by spraying with the active ingredient formulation of the desired concentration and populated with larvae of the mustard beetle (Phaedon cochleariae) while the leaves are still moist.
After the desired period of time, the kill rate in % is determined. 100% means that all beetle larvae have been killed; 0% means that none of the beetle larvae have been killed. The kill rates determined are entered into Colby's formula.

[1] = Myzus persicae, 24 h, 20 g/ha, after 1 d, read-out: Kill rate in % after 1 d
[2] = Myzus persicae, 144 h, after 6 d, read-out: Kill rate in % after 6 d
[3] = Myzus persicae, 24 h, 4 g/ha, after 1 d, read-out: Kill rate in % after 1 d
[4] = Myzus persicae, 24 h, 0.8 g/ha, after 1 d, read-out: Kill rate in % after 1 d
[5] = Myzus persicae, 24 h, read-out: Kill rate in % after 1 d
[6] = Myzus persicae, 144 h, read-out: Kill rate in % after 6 d
[7] = Myzus persicae, 24 h, 100 g/ha, after 1 d, read-out: Kill rate in % after 1 d
[8] = Myzus persicae, 144 h, 0.8 g/ha, after 6 d, read-out: Kill rate in % after 6 d
[9] = Phaedon cochleariae, 144 h, 0.16 g/ha, after 6 d, read-out: Kill rate in % after 6 d
[10] = Tetranychus urticae, 48 h, 4 g/ha, after 2 d, applied individually, read-out: Kill rate in % after 2 d
[11] = Myzus persicae, 24 h, after 1 d, read-out: Kill rate in % after 1 d
[12] = Tetranychus urticae, 144 h, 20 g/ha, after 6 d, applied individually, read-out: Kill rate in % after 6 d

CNC(=O)Oc1cc(C)c(SC)c(C)c1 [methiocarb]
pest or weed control at 20 g/ha (Myzus persicae; [1]): 0%

C/C(=N\C#N)N(C)Cc1ccc(Cl)nc1 [acetamiprid]
pest or weed control at 0.16 g/ha (Myzus persicae; [2]): 0%

CCOP(=S)(OCC)Oc1nc(Cl)c(Cl)cc1Cl [chlorpyrifos]
pest or weed control at 100 g/ha (Tetranychus urticae; Tetranychus urticae, 144 h, 100 g/ha, after 6 d, applied individually, read-out: Kill rate in % after 6 d): 0%
pest or weed control at 4 g/ha (Myzus persicae; [3]): 80%

O=[N+]([O-])NC1=NCCN1Cc1ccc(Cl)nc1 [imidacloprid]
pest or weed control at 0.8 g/ha (Myzus persicae; [4]): 0%

CC[S+]([O-])c1c(C#N)nn(-c2c(Cl)cc(C(F)(F)F)cc2Cl)c1N (stereo not shown) [ethiprole]
pest or weed control at 4 g/ha (Myzus persicae; [3]): 0%

CC(C)c1cc(Oc2ccccc2)cc(C(C)C)c1NC(=S)NC(C)(C)C [diafenthiuron]
pest or weed control at 100 g/ha (Tetranychus urticae; Tetranychus urticae, 48 h, read-out: Kill rate in % after 2 d): 0%
pest or weed control at 20 g/ha (Tetranychus urticae; Tetranychus urticae, 144 h, read-out: Kill rate in % after 6 d): 10%
pest or weed control at 100 g/ha (Myzus persicae; [5]): 0%
pest or weed control at 20 g/ha (Myzus persicae; [6]): 70%

CN/C(=N/CC1CCOC1)N[N+](=O)[O-] (stereo not shown) [dinotefuran]
Kill rate in % after 2 d (Phaedon cochleariae; in vivo): 0%

COP(N)(=O)SC (stereo not shown) [methamidophos]
pest or weed control at 20 g/ha (Myzus persicae; [1]): 0%
pest or weed control at 100 g/ha (Myzus persicae; [7]): 80%

Fc1cncc(-c2ncc(-c3cccc(-c4ncccn4)n3)s2)c1 [2-{6-[2-(5-fluoropyridin-3-yl)-1,3-thiazol-5-yl]pyridin-2-yl}pyrimidine]
pest or weed control at 0.8 g/ha (Myzus persicae; [8]): 70%
pest or weed control at 0.16 g/ha (Phaedon cochleariae; [9]): 0%

Cc1cc(C)c(C2=C(OC(=O)CC(C)(C)C)C3(CCCC3)OC2=O)c(C)c1 [spiromesifen]
Kill rate in % after 6 d (Tetranychus urticae; 4 g/ha, after 6 d, applied individually): 70%
Kill rate in % after 6 d (Tetranychus urticae; 20 g/ha, after 6 d, applied individually): 80%
Kill rate in % after 1 d (Myzus persicae; 4 g/ha, after 1 d): 0%

CNC(=O)Oc1cccc2c1OC(C)(C)C2 [carbofuran]
pest or weed control at 20 g/ha (Myzus persicae; [1]): 70%

CCCSP(=O)(OCC)SCCC [ethoprophos]
pest or weed control at 4 g/ha (Myzus persicae; [6]): 0%
pest or weed control at 0.8 g/ha (Phaedon cochleariae; Phaedon cochleariae, 144 h, 0.8 g/ha, after 6 d, read-out: Kill rate in % after 6 d): 0%

COP(=O)(NC(C)=O)SC (stereo not shown) [acephate]
pest or weed control at 100 g/ha (Myzus persicae; [5]): 0%
pest or weed control at 4 g/ha (Phaedon cochleariae; Phaedon cochleariae, 144 h, read-out: Kill rate in % after 6 d): 0%

CC1(C)C(C=C(Cl)Cl)C1C(=O)OC(C#N)c1cccc(Oc2ccccc2)c1 (stereo not drawn) [alpha-cypermethrin]
pest or weed control at 4 g/ha (Tetranychus urticae; [10]): 0%
pest or weed control at 0.16 g/ha (Myzus persicae; [11]): 70%

O=C(NC(=O)c1ccccc1Cl)Nc1ccc(OC(F)(F)F)cc1 [triflumuron]
pest or weed control at 4 g/ha (Myzus persicae; Myzus persicae, 144 h, 4 g/ha, after 6 d, read-out: Kill rate in % after 6 d): 0%
pest or weed control at 20 g/ha (Myzus persicae; Myzus persicae, 144 h, 20 g/ha, after 6 d, read-out: Kill rate in % after 6 d): 0%
pest or weed control at 4 g/ha (Phaedon cochleariae; Phaedon cochleariae, 144 h, 4 g/ha, after 6 d, read-out: Kill rate in % after 6 d): 0%

milbemectin
Kill rate in % after 2 d (Tetranychus urticae; 0.032 g/ha, after 2 d, applied individually): 50%
Kill rate in % after 6 d (Myzus persicae; 0.032 g/ha, after 6 d): 0%
Kill rate in % after 1 d (Myzus persicae; 0.8 g/ha, after 1 d): 0%

CNC(=O)O/N=C/C(C)(C)SC [aldicarb]
pest or weed control at 0.8 g/ha (Myzus persicae; [8]): 0%
Kill rate in % after 2 d (Phaedon cochleariae; 0.8 g/ha, after 2 d): 0%

CC1(C)[C@H](C(=O)O[C@H](C#N)c2cccc(Oc3ccccc3)c2)[C@@H]1/C=C\C(=O)OC(C(F)(F)F)C(F)(F)F [acrinathrin]
pest or weed control at 0.8 g/ha (Tetranychus urticae; Tetranychus urticae, 48 h, after 2 d, applied individually, read-out: Kill rate in % after 2 d): 0%
pest or weed control at 4 g/ha (Tetranychus urticae; [10]): 20%
pest or weed control at 0.8 g/ha (Tetranychus urticae; Tetranychus urticae, 144 h, after 6 d, applied individually, read-out: Kill rate in % after 6 d): 40%
pest or weed control at 0.8 g/ha (Myzus persicae; [4]): 0%

CCOC(=O)OC1=C(c2cc(C)ccc2C)C(=O)N[C@]12CC[C@@H](OC)CC2 [spirotetramat]
pest or weed control at 4 g/ha (Tetranychus urticae; [10]): 0%

CC1(C)[C@H](C=C(Cl)Cl)[C@H]1C(=O)OCc1c(F)c(F)cc(F)c1F [transfluthrin]
pest or weed control at 20 g/ha (Myzus persicae; [1]): 70%

CCOCn1c(-c2ccc(Cl)cc2)c(C#N)c(Br)c1C(F)(F)F [chlorfenapyr]
pest or weed control at 4 g/ha (Tetranychus urticae; [10]): 10%
pest or weed control at 0.16 g/ha (Myzus persicae; [2]): 0%
pest or weed control at 0.8 g/ha (Myzus persicae; [8]): 0%

Cc1c(F)c(F)c(COC(=O)[C@@H]2[C@H](/C=C(\Cl)C(F)(F)F)C2(C)C)c(F)c1F (racemic) [tefluthrin]
pest or weed control at 20 g/ha (Tetranychus urticae; [12]): 0%

CN/C(=N\[N+](=O)[O-])NCc1cnc(Cl)s1 [clothianidin]
pest or weed control at 20 g/ha (Myzus persicae; [1]): 70%
pest or weed control at 0.16 g/ha (Myzus persicae; [2]): 0%

Cc1c(COC(=O)[C@@H]2[C@H](/C=C(\Cl)C(F)(F)F)C2(C)C)cccc1-c1ccccc1 (racemic) [bifenthrin]
pest or weed control at 0.16 g/ha (Tetranychus urticae; Tetranychus urticae, 48 h, 0.16 g/ha, after 2 d, applied individually, read-out: Kill rate in % after 2 d): 0%
pest or weed control at 0.8 g/ha (Myzus persicae; [4]): 80%

CCOP(=O)(SC(C)CC)SC(C)CC (stereo not shown) [cadusaphos]
pest or weed control at 20 g/ha (Tetranychus urticae; [12]): 0%
pest or weed control at 20 g/ha (Myzus persicae; [1]): 0%

CS/C(C)=N\OC(=O)N(C)SN(C)C(=O)O/N=C(\C)SC [thiodicarb]
pest or weed control at 100 g/ha (Tetranychus urticae; Tetranychus urticae, 48 h, 100 g/ha, after 2 d, applied individually, read-out: Kill rate in % after 2 d): 0%
pest or weed control at 20 g/ha (Myzus persicae; [1]): 0%

N#Cc1nn(-c2c(Cl)cc(C(F)(F)F)cc2Cl)c(N)c1[S+]([O-])C(F)(F)F (stereo not shown) [fipronil]
pest or weed control at 0.16 g/ha (Myzus persicae; [2]): 0%
Kill rate in % after 2 d (Phaedon cochleariae; 0.16 g/ha, after 2 d): 67%

Cc1cc(Cl)cc(C)c1C1=C(O)C2(CCC3(CC2)OCCO3)NC1=O [11-(4-chloro-2,6-dimethylphenyl)-12-hydroxy-1,4-dioxa-9-azadispiro[4.2.4.2]tetradec-11-en-10-one]
pest or weed control at 0.8 g/ha (Myzus persicae; [8]): 0%

CC1(C)C(C=C(Cl)Cl)C1C(=O)OC(C#N)c1cccc(Oc2ccccc2)c1 (stereo not shown) [cypermethrin]
pest or weed control at 4 g/ha (Myzus persicae; [3]): 80%
pest or weed control at 0.16 g/ha (Phaedon cochleariae; [9]): 0%

N#C/N=C1\SCCN1Cc1ccc(Cl)nc1 [thiacloprid]
pest or weed control at 20 g/ha (Myzus persicae; [1]): 80%
pest or weed control at 0.8 g/ha (Myzus persicae; [8]): 80%

CC1(C)[C@H](C(=O)O[C@H](C#N)c2cccc(Oc3ccccc3)c2)[C@@H]1C=C(Br)Br [deltamethrin]
pest or weed control at 0.8 g/ha (Myzus persicae; [4]): 0%

O=C1C=C(N(Cc2ccc(Cl)nc2)CC(F)F)CO1 [4-{[(6-chloropyrid-3-yl)methyl](2,2-difluoroethyl)amino}furan-2(5H)-one]
pest or weed control at 20 g/ha (Tetranychus urticae; Tetranychus urticae, 48 h, 20 g/ha, after 2 d, applied individually, read-out: Kill rate in % after 2 d): 0%
pest or weed control at 20 g/ha (Myzus persicae; [1]): 0%

CC(c1ccc(C(F)(F)F)nc1)S(C)(=O)=NC#N (stereo not shown) [sulfoxaflor]
pest or weed control at 0.16 g/ha (Myzus persicae; [11]): 0%

CC1=NNC(=O)N(/N=C/c2cccnc2)C1 [pymetrozine]
pest or weed control at 100 g/ha (Myzus persicae; [7]): 0%

N#CCNC(=O)c1cnccc1C(F)(F)F [flonicamid]
Kill rate in % after 1 d (Myzus persicae; 20 g/ha, after 1 d): 0%

CC(C)N1C(=O)N(c2ccccc2)CS/C1=N\C(C)(C)C [buprofezin]
pest or weed control at 500 g/ha (Myzus persicae; Myzus persicae, 24 h, 500 g/ha, after 1 d, read-out: Kill rate in % after 1 d): 0%

CN1COCN(Cc2cnc(Cl)s2)/C1=N\[N+](=O)[O-] [thiamethoxam]
pest or weed control at 20 g/ha (Myzus persicae; [1]): 70%

N#Cc1ccc(CC(=NNC(=O)Nc2ccc(OC(F)(F)F)cc2)c2cccc(C(F)(F)F)c2)cc1 (mixture of isomers) [metaflumizone]
Kill rate in % after 1 d (Myzus persicae; 20 g/ha, after 1 d): 0%

From patent US20160037775A1, “ACTIVE INGREDIENT COMBINATIONS HAVING INSECTICIDAL AND ACARICIDAL PROPERTIES” (priority 2010, published 2016)
